Data from the supplement of paper PMC10307832.

Legend:
Assay in all cases: relative viability (nuclei count vs DMSO), 5 days (fraction); higher = more cells survive
Erlotinib + Bortezomib = compound: C#Cc1cccc(Nc2ncnc3cc(OCCOC)c(OCCOC)cc23)c1 [Erlotinib] + CC(C)C[C@H](NC(=O)[C@H](Cc1ccccc1)NC(=O)c1cnccn1)B(O)O [Bortezomib] (partner 0.002 µM)
Outline: (§1)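 Lung cancer cell lines, seeded in 1536-well plates, were treated the following day by pin tool with a single drug or with five library-drug doses (not always all listed) in √10 steps on top of a fixed anchor-drug dose. Cells were fixed and nuclei stained in one step after 5 days, and nuclei were counted. Relative viability is the nuclei count for treated wells divided by that for vehicle wells, reported as medians of duplicate plates.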

Erlotinib + Tozasertib = compound: C#Cc1cccc(Nc2ncnc3cc(OCCOC)c(OCCOC)cc23)c1 [Erlotinib] + Cc1cc(Nc2cc(N3CCN(C)CC3)nc(Sc3ccc(NC(=O)C4CC4)cc3)n2)n[nH]1 [Tozasertib] (partner 0.1 µM)
Outline: as §1

AT9283 + Linsitinib = compound: O=C(Nc1c[nH]nc1-c1nc2ccc(CN3CCOCC3)cc2[nH]1)NC1CC1 [AT9283] + C[C@]1(O)C[C@@H](c2nc(-c3ccc4ccc(-c5ccccc5)nc4c3)c3c(N)nccn32)C1 [Linsitinib] (partner 1 µM)
Outline: as §1

AT9283 + Pemetrexed = compound: O=C(Nc1c[nH]nc1-c1nc2ccc(CN3CCOCC3)cc2[nH]1)NC1CC1 [AT9283] + Nc1nc2[nH]cc(CCc3ccc(C(=O)N[C@@H](CCC(=O)O)C(=O)O)cc3)c2c(=O)[nH]1 [Pemetrexed] (partner 0.2 µM)
Outline: as §1

AT9283 + Olaparib = compound: O=C(Nc1c[nH]nc1-c1nc2ccc(CN3CCOCC3)cc2[nH]1)NC1CC1 [AT9283] + O=C(c1cc(Cc2n[nH]c(=O)c3ccccc23)ccc1F)N1CCN(C(=O)C2CC2)CC1 [Olaparib] (partner 8 µM)
Outline: as §1

Cell Line	relative viability (Erlotinib + Bortezomib; first compound 0.02 µM)	relative viability (Erlotinib + Bortezomib; first compound 0.2 µM)	relative viability (Erlotinib + Bortezomib; first compound 0.6325 µM)	relative viability (Erlotinib + Bortezomib; first compound 2 µM)	relative viability (Erlotinib + Tozasertib; first compound 0.02 µM)	relative viability (Erlotinib + Tozasertib; first compound 0.2 µM)	relative viability (Erlotinib + Tozasertib; first compound 0.6325 µM)	relative viability (Erlotinib + Tozasertib; first compound 2 µM)	relative viability (AT9283 + Linsitinib; first compound 0.003 µM)	relative viability (AT9283 + Linsitinib; first compound 0.03 µM)	relative viability (AT9283 + Linsitinib; first compound 0.09487 µM)	relative viability (AT9283 + Linsitinib; first compound 0.3 µM)	relative viability (AT9283 + Pemetrexed; first compound 0.003 µM)	relative viability (AT9283 + Pemetrexed; first compound 0.03 µM)	relative viability (AT9283 + Pemetrexed; first compound 0.09487 µM)	relative viability (AT9283 + Pemetrexed; first compound 0.3 µM)	relative viability (AT9283 + Olaparib; first compound 0.003 µM)	relative viability (AT9283 + Olaparib; first compound 0.03 µM)	relative viability (AT9283 + Olaparib; first compound 0.09487 µM)	relative viability (AT9283 + Olaparib; first compound 0.3 µM)
PC-3 [JPC-3]	0.796	0.455	0.401	0.324	0.825	0.355	0.331	0.274	0.94	1.03	0.74	0.521	0.966	1.06	0.717	0.568	1.31	1.03	0.844	0.607
NCI-H1648	–	–	–	–	0.489	0.434	0.555	0.252	–	–	–	–	0.579	0.553	0.493	0.386	0.636	0.584	0.254	0.461
NCI-H1563	0.905	0.787	0.75	0.754	–	–	–	–	1.26	0.892	0.832	0.757	0.751	0.66	0.559	0.513	–	–	–	–
201T	1.12	1.06	1.12	1.02	0.965	0.915	0.877	0.707	1.02	1.02	0.8	0.409	0.292	0.297	0.279	0.306	0.867	0.815	0.356	0.335
ChaGo-K-1	0.847	1.09	1.23	0.749	0.214	0.186	0.179	0.185	–	–	–	–	0.239	0.247	0.188	0.166	0.444	0.352	0.252	0.203
LOU-NH91	0.525	0.497	0.484	0.458	0.564	0.472	0.491	0.424	0.903	0.968	0.604	0.464	0.406	0.385	0.331	0.351	0.915	0.774	0.512	0.441
NCI-H522	–	–	–	–	0.493	0.573	0.508	0.465	–	–	–	–	0.949	0.78	0.746	0.499	0.619	0.553	0.453	0.575
NCI-H1395	–	–	–	–	0.837	0.772	0.712	0.566	1.08	0.901	0.373	0.383	0.799	0.764	0.322	0.34	0.414	0.46	0.38	0.358
LXF-289	0.964	0.999	0.921	0.857	0.195	0.218	0.208	0.117	1	0.47	0.132	0.12	0.827	0.861	0.215	0.128	1.13	0.98	0.0877	0.0796
NCI-H727	0.785	0.844	1	0.701	0.616	0.51	0.493	0.424	0.211	0.16	0.199	0.23	–	–	–	–	0.84	0.768	0.494	0.496
NCI-H358	–	–	–	–	0.0843	0.111	0.0963	0.0822	0.447	0.142	0.12	0.17	0.164	0.124	0.111	0.112	0.513	0.202	0.091	0.105
SW 900	–	–	–	–	0.514	0.487	0.33	0.257	–	–	–	–	0.326	0.468	0.423	0.32	0.882	0.783	0.507	0.312
ABC-1	0.25	0.355	0.328	0.287	0.154	0.172	0.173	0.148	0.722	0.211	0.182	0.182	–	–	–	–	0.853	0.324	0.551	0.417
LK-2	–	–	–	–	0.196	0.17	0.157	0.158	0.341	0.351	0.129	0.127	0.196	0.135	0.136	0.105	0.742	0.312	0.113	0.103
A549	–	–	–	–	–	–	–	–	0.539	0.311	0.0598	0.0613	–	–	–	–	0.358	0.0601	0.0514	0.069
Calu-6	0.992	1.02	1.04	0.933	–	–	–	–	0.859	0.286	0.222	0.197	–	–	–	–	0.575	0.228	0.178	0.197
NCI-H1793	–	–	–	–	0.307	0.258	0.235	0.161	0.941	0.859	0.339	0.209	0.876	1.07	0.355	0.306	0.986	0.841	0.451	0.257
EBC-1	0.609	0.588	0.477	0.587	–	–	–	–	0.997	0.354	0.214	0.111	–	–	–	–	0.669	0.334	0.18	0.145
NCI-H1623	–	–	–	–	0.437	0.315	0.29	0.209	–	–	–	–	–	–	–	–	–	–	–	–
NCI-H1650	0.204	0.204	0.176	0.178	0.465	0.332	0.305	0.217	–	–	–	–	0.358	0.362	0.361	0.28	0.759	0.808	0.693	0.48
NCI-H1299	1.11	1.05	0.997	1	–	–	–	–	0.888	0.705	0.402	0.256	–	–	–	–	0.911	0.657	0.366	0.316
NCI-H2342	–	–	–	–	0.444	0.495	0.491	0.361	–	–	–	–	0.793	0.619	0.603	0.387	0.476	0.434	0.384	0.292
